US11524004B2, “Analogs of proxisome proliferator activated receptor (PPAR) agonists and methods of using the same” (The University of Toledo, priority 2013, dated 2022)

Tests used:
[1] = system: Human bone marrow-derived mesenchymal stem cells (MSCs); test: MSC osteogenesis assay: Alizarin Red S osteoblast mineralization, with concomitant assessment of fat cell formation; format: cell-based; conditions: for osteogenic formation from MSCs: MSCs in osteogenic medium, test agent at 1, 2, 4, 10 or 20 μM every 2nd day for 21 days, Alizarin Red S; for profile of fat (AD) versus osteogenic (OS) effects during dose progression (bone should predominate): dose progression 1-20 μM
Procedure: Human bone marrow-derived mesenchymal stem cells (MSCs) were taken through 2-3 passages and distributed across a 24 well plate at a density of 1×10^5 cells/cm^2. The plates were cultured in α-MEM with 20% FBS for 1 day at 37° C. On day 2 the medium was switched to osteogenic media (Stem X-Vivo, R&D System, Minneapolis, Minn.) containing 10% FBS plus 50 μg/ml ascorbic acid and 3 mM β-glycerol-phosphate. MSCs were cultured in the osteogenic medium without (vehicle negative control) or with test agents at 1, 2, 4, 10 or 20 μM supplied every 2nd day for 21 days. GW 0427 (standard PPAR ligand as positive control) was delivered by the same regimen on every plate to account for experimental variation.
Plates were washed twice with ice-cold PBS and incubated in 50 mM Tris-HCl (pH 7.6). The cells were treated with 2% Alizarin Red S (pH 4.2) for 10 min and then washed with distilled water. Stained cells were visualized by phase-contrast microscopy to determine cell morphology and to verify the presence of mineralized nodules (red images). The intensities of the images were assessed by Image-Pro Analyzer (Media Cybernetics, Inc., Bethesda, Md.).

Compound | osteogenic formation from MSCs [1] | profile of fat (AD) versus osteogenic (OS) effects during dose progression (bone should predominate) ([1]; MSC assay) | other results
Cc1nc(-c2ccc(C(F)(F)F)c(F)c2)sc1COc1ccc(C=CC(=O)O)cc1 [JM-4-57, 4-[Oxo-[5-methylene-4-methyl-2-[3-fluoro-4-(trifluromethyl)phenyl]thiazole]]cinnamic Acid] | Increased osteogenic formation |  | concentration at which osteogenic activity peaks ([1]; MSCs, 21 days, doses 1-20 μM): 10 µM
Cc1cc(SCc2sc(-c3ccc(C(F)(F)F)c(F)c3)nc2C)ccc1OCC(=O)O [GW0742, reference compound] |  | initially demonstrates such a preference | OS activity as dose range continued to 10 and 20 uM ([1]; MSC assay, 10 and 20 uM, estimated, averaged effects): decreased
Cc1nc(-c2ccc(C(F)(F)F)cc2)sc1CN(C)c1ccc(C=CC(=O)O)cc1 [BK-4-15, 4-[N-Methyl-N-[5-methylene-4-methyl-2-[4-(trifluoromethyl)phenyl]thiazole]]aminocinnamic Acid] | Increased osteogenic formation | most preferred profile | 
Cc1nc(-c2ccc(C(F)(F)F)c(F)c2)sc1CNc1ccc(C=CC(=O)O)cc1 [BK-4-30, 4-[N-[5-methylene-4-methyl-2-[3-fluoro-4-(trifluoromethyl)phenyl]thiazole]]aminocinnamic Acid] |  | not as suitable | 
Cc1nc(-c2ccc(C(F)(F)F)cc2)sc1CNc1ccc(C=CC(=O)O)cc1 [BK-4-03, 4-[N-[5-Methylene-4-methyl-2-[4-(trifluoromethyl)phenyl]thiazole]]aminocinnamic Acid] | Increased osteogenic formation |  | 
Cc1nc(-c2ccc(C(F)(F)F)cc2)sc1CSc1ccc(C=CC(=O)O)cc1 [BK-4-04, 4-Thio-[5-methylene-4-methyl-2-[4-(trifluoromethyl)phenyl]thiazole]cinnamic Acid] | Increased osteogenic formation |  | 
Cc1nc(-c2ccccc2)sc1CCOc1ccc(C=CC(=O)O)cc1 [BK-3-51, 4-[[4-Methyl-2-phenylthiazol-5-yl]methyl]methoxycinnamic Acid] |  |  | melting point: 209 to 211 °C
